In patent publication US20220281863A1, “COMPOUNDS, COMPOSITIONS AND METHODS OF TREATING DISORDERS” (Reverie Labs, Inc., priority 2019, published 2022):

Biological target: T1, CDK9/CycTI (Homo sapiens, UniProt P50750)
T1 construct: purchased Carna biosciences 04-110
Assay: In vitro kinase assay (ADP-Glo Kinase Assay Kit), CDK9/CycTI
Format: biochemical
Details: 30 ng CDK9/CycTI, 30 μM CDKtide, 10 μM ATP, 2 hours at room temperature; 8 to 10-point dose response (Tier2); read-out: IC50 Score
Method: In vitro kinase assay was performed in white, 384-low volume plates in 5 μl reaction volume consisting of 30 ng CDK9/CycTI (Carna biosciences #04-110), 30 μM CDKtide (Signalchem #C06-58) and 10 μM ATP made in reaction buffer (40 mM Tris, pH 7.5; 20 mM MgCl2; 0.1 mg/ml BSA; 50 μM DTT) at 1 μM & 10 μM compound concentration for Tier1 assay and 8 to 10-point dose response curve for Tier2 assay. After 2 hours of incubation at room temperature, the amounts of […] in the kinase reaction were quantified using ADP-Glo™ Kinase Assay Kit (Promega #V9102). Briefly, 5 μl of ADP-Glo™ reagent was added to stop the kinase reaction and plate was incubated for 40 minutes at room temperature. Subsequently, 10 μl of Kinase Detection Reagent was added and luminescence was recorded after 30 minutes of incubation at room temperature.
The inhibition of kinase activity was determined relative to positive control (2% DMSO) and IC50 was calculated using GraphPad prism software (four parameter-variable slope equation).

T1 sequence (P50750 whole entry): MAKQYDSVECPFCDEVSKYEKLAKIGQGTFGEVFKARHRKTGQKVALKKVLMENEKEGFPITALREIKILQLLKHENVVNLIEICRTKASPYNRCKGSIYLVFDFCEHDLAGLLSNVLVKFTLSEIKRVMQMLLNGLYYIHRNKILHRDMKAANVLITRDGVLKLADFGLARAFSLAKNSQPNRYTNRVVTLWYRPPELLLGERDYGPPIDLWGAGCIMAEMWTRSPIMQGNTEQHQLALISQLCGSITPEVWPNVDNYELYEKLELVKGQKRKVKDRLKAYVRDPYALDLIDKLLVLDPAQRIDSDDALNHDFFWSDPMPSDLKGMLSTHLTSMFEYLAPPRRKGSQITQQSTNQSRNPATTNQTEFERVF
T1 sequence (O60563 whole entry partner): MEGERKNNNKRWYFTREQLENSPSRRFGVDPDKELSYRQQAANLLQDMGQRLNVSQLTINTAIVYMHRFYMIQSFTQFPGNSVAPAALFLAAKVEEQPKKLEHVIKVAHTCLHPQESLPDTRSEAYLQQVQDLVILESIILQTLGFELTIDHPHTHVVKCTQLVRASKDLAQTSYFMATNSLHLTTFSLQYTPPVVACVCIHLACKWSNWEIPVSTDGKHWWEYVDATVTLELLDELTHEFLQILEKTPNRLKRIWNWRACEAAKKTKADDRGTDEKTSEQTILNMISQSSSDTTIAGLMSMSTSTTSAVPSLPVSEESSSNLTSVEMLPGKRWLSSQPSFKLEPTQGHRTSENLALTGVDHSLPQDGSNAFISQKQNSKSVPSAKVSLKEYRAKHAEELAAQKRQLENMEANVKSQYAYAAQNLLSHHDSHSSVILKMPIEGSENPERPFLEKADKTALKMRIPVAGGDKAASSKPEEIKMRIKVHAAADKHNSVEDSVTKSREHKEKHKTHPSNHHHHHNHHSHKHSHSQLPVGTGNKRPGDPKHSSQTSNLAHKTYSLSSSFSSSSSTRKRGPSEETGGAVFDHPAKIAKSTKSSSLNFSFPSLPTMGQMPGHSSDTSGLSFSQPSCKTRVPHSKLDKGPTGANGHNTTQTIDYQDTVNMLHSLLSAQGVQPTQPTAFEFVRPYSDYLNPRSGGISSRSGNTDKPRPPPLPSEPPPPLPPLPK

SMILES	IC50 [nM]
CC(=O)N1CCC(C(=O)Nc2nc3ccc4cc(F)ccc4c3s2)C1 (racemic) [Compound 55, 1-acetyl-N-(7-fluoronaphtho[2,1-d]thiazol-2-yl)pyrrolidine-3-carboxamide]	1 to 100
O=C(Nc1nc2ccc3cc(F)ccc3c2s1)C1CCNC1 (racemic) [Compound 83, N-(7-fluoronaphtho[2,1-d]thiazol-2-yl)pyrrolidine-3-carboxamide]	1 to 100
O=C(Nc1nc2ccc3cc(F)ccc3c2s1)C1CCNC1 (single isomer, unassigned) [Compound 37, N-(7-fluoronaphtho[2,1-d]thiazol-2-yl)pyrrolidine-3-carboxamide]	1 to 100
CC(=O)N1CCN(C)CC1C(=O)Nc1nc2ccc3cc(F)ccc3c2s1 (single isomer, unassigned) [Compound 66, 1-acetyl-N-(7-fluoronaphtho[2,1-d]thiazol-2-yl)-4-methylpiperazine-2-carboxamide]	1000 to 20000
CN1CCC(C(=O)Nc2nc3ccc4cc(F)ccc4c3s2)C1 (single isomer, unassigned) [Compound 70, N-(7-fluoronaphtho[2,1-d]thiazol-2-yl)-1-methylpyrrolidine-3-carboxamide]	1 to 100
CC(=O)N1CCC(C(=O)Nc2nc3ccc4cc(F)ccc4c3s2)C1 (single isomer, unassigned) [Compound 82, 1-acetyl-N-(7-fluoronaphtho[2,1-d]thiazol-2-yl)pyrrolidine-3-carboxamide]	100 to 500
CN1CCC(C(=O)Nc2nc3ccc4cc(F)ccc4c3s2)C1 (single isomer, unassigned) [Compound 92, N-(7-fluoronaphtho[2,1-d]thiazol-2-yl)-1-methylpyrrolidine-3-carboxamide]	1 to 100
CC(C)(C)OC(=O)N1CCC[C@@H]1C(=O)Nc1nc2ccc3ccccc3c2s1 [Compound 1, tert-Butyl (R)-2-(naphtho[2,1-d]thiazol-2-ylcarbamoyl)pyrrolidine-1-carboxylate]	1000 to 20000
CC(=O)N1CCC[C@@H]1C(=O)Nc1nc2ccc3cc(F)ccc3c2s1 [Compound 4, (R)-1-acetyl-N-(7-fluoronaphtho[2,1-d]thiazol-2-yl)pyrrolidine-2-carboxamide]	1 to 100
CC(=O)N1CCC[C@@H]1C(=O)Nc1nc2c(s1)-c1ccc(F)cc1CC2 [Compound 6, (R)-1-acetyl-N-(7-fluoro-4,5-dihydronaphtho[2,1-d]thiazol-2-yl)pyrrolidine-2-carboxamide]	500 to 1000
O=C1CC[C@H](C(=O)Nc2nc3ccc4cc(F)ccc4c3s2)N1 [Compound 7, (R)—N-(7-fluoronaphtho[2,1-d]thiazol-2-yl)-5-oxopyrrolidine-2-carboxamide]	1 to 100
O=C(Nc1nc2ccc3cc(F)ccc3c2s1)[C@H]1CCCO1 [Compound 10, (R)—N-(7-fluoronaphtho[2,1-d]thiazol-2-yl)tetrahydrofuran-2-carboxamide]	100 to 500
O=C1CC[C@@H](C(=O)Nc2nc3ccc4ccccc4c3s2)N1 [Compound 11, (S)—N-(naphtho[2,1-d]thiazol-2-yl)-5-oxopyrrolidine-2-carboxamide]	1 to 100
CC(=O)N[C@@H]1CCC[C@H](C(=O)Nc2nc3ccc4cc(F)ccc4c3s2)C1 [Compound 14, (1S,3R)-3-acetamido-N-(7-fluoronaphtho[2,1-d]thiazol-2-yl)cyclohexane-1-carboxamide]	1 to 100

Further lines, results first:

IC50 [nM]	SMILES
100 to 500	CC(=O)N1CCNCC1C(=O)Nc1nc2ccc3cc(F)ccc3c2s1 (single isomer, unassigned) [Compound 18-a, 1-acetyl-N-(7-fluoronaphtho[2,1-d]thiazol-2-yl)piperazine-2-carboxamide]
1000 to 20000	CC(=O)N1CCNCC1C(=O)Nc1nc2ccc3cc(F)ccc3c2s1 (single isomer, unassigned) [Compound 18-b, 1-acetyl-N-(7-fluoronaphtho[2,1-d]thiazol-2-yl)piperazine-2-carboxamide]
1000 to 20000	CC(=O)N1CCN(C)CC1C(=O)Nc1nc2ccc3cc(F)ccc3c2s1 (single isomer, unassigned) [Compound 32, 1-acetyl-N-(7-fluoronaphtho[2,1-d]thiazol-2-yl)-4-methylpiperazine-2-carboxamide]
1 to 100	CC(=O)N1CCC(C(=O)Nc2nc3ccc4cc(F)ccc4c3s2)C1 (single isomer, unassigned) [Compound 36, 1-acetyl-N-(7-fluoronaphtho[2,1-d]thiazol-2-yl)pyrrolidine-3-carboxamide]
1 to 100	CN1CCC(C(=O)Nc2nc3ccc4cc(F)ccc4c3s2)C1 (single isomer, unassigned) [Compound 48, N-(7-fluoronaphtho[2,1-d]thiazol-2-yl)-1-methylpyrrolidine-3-carboxamide]
1 to 100	O=C(Nc1nc2ccc3cc(F)ccc3c2s1)C1CCNC1 (single isomer, unassigned) [Compound 51, N-(7-fluoronaphtho[2,1-d]thiazol-2-yl)pyrrolidine-3-carboxamide]
1000 to 20000	CC(=O)N1CCCC[C@H]1C(=O)Nc1nc2ccc3cc(F)ccc3c2s1 (single isomer, unassigned) [Compound 67]
1000 to 20000	O=C(Nc1nc2ccc3ccccc3c2s1)[C@H]1CCCN1 [Compound 2, (R)—N-(naphtho[2,1-d]thiazol-2-yl)pyrrolidine-2-carboxamide]
100 to 500	CC(=O)N1CCC[C@@H]1C(=O)Nc1nc2ccc3ccccc3c2s1 [Compound 3, (R)-1-acetyl-N-(naphtho[2,1-d]thiazol-2-yl)pyrrolidine-2-carboxamide]
1000 to 20000	CC(=O)N1CCC[C@H]1C(=O)Nc1nc2ccc3cc(F)ccc3c2s1 [Compound 5, (S)-1-acetyl-N-(7-fluoronaphtho[2,1-d]thiazol-2-yl)pyrrolidine-2-carboxamide]
1 to 100	O=C1CC[C@@H](C(=O)Nc2nc3ccc4cc(F)ccc4c3s2)N1 [Compound 8, (S)—N-(7-fluoronaphtho[2,1-d]thiazol-2-yl)-5-oxopyrrolidine-2-carboxamide]
1 to 100	CS(=O)(=O)N1CCC[C@@H]1C(=O)Nc1nc2ccc3cc(F)ccc3c2s1 [Compound 9, (R)—N-(7-fluoronaphtho[2,1-d]thiazol-2-yl)-1-(methylsulfonyl)pyrrolidine-2-carboxamide]
100 to 500	CC(=O)Nc1nc2ccc3cc(F)ccc3c2s1 [Compound 12, N-(7-fluoronaphtho[2,1-d]thiazol-2-yl)acetamide]
1 to 100	CS(=O)(=O)N[C@@H]1CCC[C@H](C(=O)Nc2nc3ccc4cc(F)ccc4c3s2)C1 [Compound 13-a, (1S,3R)—N-(7-fluoronaphtho[2,1-d]thiazol-2-yl)-3-(methylsulfonamido)cyclohexane-1-carboxamide]
100 to 500	CS(=O)(=O)N[C@@H]1CCC[C@H](C(=O)Nc2nc3c(s2)-c2ccc(F)cc2CC3)C1 [Compound 13-b, (1S,3R)—N-(7-fluoro-4,5-dihydronaphtho[2,1-d]thiazol-2-yl)-3-(methylsulfonamido)cyclohexane-1-carboxamide]
1 to 100	O=C(Nc1nc2ccc3cc(F)ccc3c2s1)[C@H]1CCC[C@@H](NS(=O)(=O)C2CC2)C1 [Compound 15-a, (1S,3R)-3-(cyclopropanesulfonamido)-N-(7-fluoronaphtho[2,1-d]thiazol-2-yl)cyclohexane-1-carboxamide]
